Results from publication PMC3062907 (Advanced synthesis & catalysis, 2008).

Legend:
Hsp90 = Hsp90 inhibition; format: biochemical; conditions: read-out: Hsp90 inhibition (IC50); in vitro; preliminary evaluation
[1] = ref ix; cited from earlier work
[2] = tested on: Rb (retinoblastoma)-negative cells; conditions: cells resistant to 17-AAG; ref x; cited from earlier work
[3] = in vivo settings; earlier work of the authors, no reference given; cited from earlier work
[4] = tested on: MCF-7 breast cancer cells; conditions: read-out: inhibitory activity against MCF-7 breast cancer cells (IC50); ref xiii; cited from earlier work
[5] = tested on: human colon carcinoma (HCT-116); experiment: In vivo study in mice implanted with human colon carcinoma; conditions: mice implanted with HCT-116; 75 mg/kg, QDx7; preliminary

| IC50 (Hsp90) | Compound | hepatotoxicity compared with 17-AAG [1] | cytotoxicity against Rb-negative cells [2] | in vivo activity [3] | IC50 [4] | tumor cell growth suppression [5] |
| --- | --- | --- | --- | --- | --- | --- |
|  | C[C@@H]1C[C@H]2O[C@@H]2/C=C\C=C\C(=O)Cc2c(Cl)c(O)cc(O)c2C(=O)O1 [Radicicol (1), radicicol] | significantly less hepatotoxic than 17-AAG (3) | potent cytotoxicity | inactive |  |  |
| 160 nM | C[C@@H]1C[C@H]2C[C@@H]2/C=C\C=C\C(=O)Cc2c(Cl)c(O)cc(O)c2C(=O)O1 [cycloproparadicicol (4), cycloproparadicicol] |  |  |  | 49 nM | 68% |
